Test results: paper PMC4894417, “Quantitative High-Throughput Profiling of Environmental Chemicals and Drugs that Modulate Farnesoid X Receptor” (Scientific Reports, 2014)
Several values for one entry are separate records, joined by “and”; a condition that tells them apart may be missing. Identical values can stand only once. Entries after “also recorded” stand apart in the source; their conditions may differ. Like-named read-outs stand apart in the source and are kept apart here.

Columns and labels:
FXR-LBD [1] = molecular target: T1, FXR-LBD (Homo sapiens, UniProt Q96RI1); test: FXR TR-FRET coactivator recruitment assay, antagonist mode (50 μM CDCA); type: biochemical
T1 construct: The glutathione S-transferase (GST)-tagged FXR-LBD protein; purchased Life Technologies
T1 sequence (Q96RI1 262-486 limits assumed): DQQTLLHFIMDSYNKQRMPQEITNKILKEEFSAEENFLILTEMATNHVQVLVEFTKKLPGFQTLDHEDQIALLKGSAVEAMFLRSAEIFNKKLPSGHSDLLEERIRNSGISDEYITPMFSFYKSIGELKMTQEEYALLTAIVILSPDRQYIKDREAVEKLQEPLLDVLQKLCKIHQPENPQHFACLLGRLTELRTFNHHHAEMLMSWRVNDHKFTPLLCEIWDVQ

FXR-LBD [2] = molecular target: T1, FXR-LBD; test: FXR TR-FRET coactivator recruitment assay, agonist mode; type: biochemical; settings: Table 1; coactivator SRC2-2 recruitment
human FXR [3] = molecular target: T2, human FXR (Homo sapiens, UniProt Q96RI1); test: FXR-bla reporter gene assay, antagonist mode (CDCA-induced transactivation); settings: for FXR antagonist activity: FXR-bla assay; for FXR-bla, antagonist Efficacy: inhibition as percent of positive control (guggulsterone)
[4] = tested on: FXR-UAS-bla HEK293T cells; test: Cell viability assay (CellTiter Glo) in the same well as FXR-bla; settings: for Cell viability IC50: Table 1, mean ± SD of 3 experiments
human FXR [5] = molecular target: T2, human FXR; test: FXR-bla reporter gene assay, agonist mode (qHTS); settings: for FXR-bla, agonist Efficacy: Table 1, activation as percent of positive control (CDCA 100%), mean ± SD of 3; for FXR agonist activity: FXR-bla assay; for FXR-bla, agonist EC50: Table 1, confirmed compounds, mean ± SD of 3 experiments
[6] = tested on: FXR-UAS-bla HEK293T cells
[7] = Cell viability assay (CellTiter Glo) in the same well as FXR-bla; settings: human, FXR-UAS-bla HEK293T cells
vitamin D receptor (VDR) = vitamin D receptor (VDR) (Homo sapiens, UniProt P11473); test: VDR-bla reporter gene assay (agonist and antagonist modes)
[8] = molecular target: peroxisome proliferator-activated receptor gamma (PPARγ) (Homo sapiens, UniProt P37231); test: PPARγ-bla reporter gene assay (agonist and antagonist modes)
[9] = Table 1, in the presence of 50 μM CDCA
[10] = read-out: FXR agonist mode EC50, Table S1, primary screening
[11] = Table S1, primary screening, 50 µM CDCA
[12] = Table S1, primary screening, CDCA 100%

Chain of vitamin D receptor (VDR) (P11473 with tags, fused parts or gaps limits assumed): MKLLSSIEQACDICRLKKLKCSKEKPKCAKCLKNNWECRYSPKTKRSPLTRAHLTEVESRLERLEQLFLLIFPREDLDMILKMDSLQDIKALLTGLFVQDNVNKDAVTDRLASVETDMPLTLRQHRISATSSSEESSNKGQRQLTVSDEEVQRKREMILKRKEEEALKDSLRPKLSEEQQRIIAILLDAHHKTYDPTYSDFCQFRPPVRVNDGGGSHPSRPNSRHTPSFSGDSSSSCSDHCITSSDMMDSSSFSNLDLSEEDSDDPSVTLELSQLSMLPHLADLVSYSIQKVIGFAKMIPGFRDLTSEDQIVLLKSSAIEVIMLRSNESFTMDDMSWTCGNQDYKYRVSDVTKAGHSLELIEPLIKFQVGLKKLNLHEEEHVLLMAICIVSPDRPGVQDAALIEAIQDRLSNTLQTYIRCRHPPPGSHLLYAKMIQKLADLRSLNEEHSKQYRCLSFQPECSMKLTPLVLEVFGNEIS
T2 sequence (Q96RI1 with tags, fused parts or gaps limits assumed): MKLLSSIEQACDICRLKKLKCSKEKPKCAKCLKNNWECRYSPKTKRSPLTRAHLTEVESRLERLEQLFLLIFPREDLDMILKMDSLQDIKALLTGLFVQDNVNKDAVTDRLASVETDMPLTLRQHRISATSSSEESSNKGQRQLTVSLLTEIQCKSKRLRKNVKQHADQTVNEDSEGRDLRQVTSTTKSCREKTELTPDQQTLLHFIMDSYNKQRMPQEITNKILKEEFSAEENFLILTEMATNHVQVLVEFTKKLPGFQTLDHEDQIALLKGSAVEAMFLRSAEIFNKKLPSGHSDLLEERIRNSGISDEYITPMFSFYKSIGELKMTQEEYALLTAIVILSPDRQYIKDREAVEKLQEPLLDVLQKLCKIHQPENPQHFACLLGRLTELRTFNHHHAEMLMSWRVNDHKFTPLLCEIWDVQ
Chain of peroxisome proliferator-activated receptor gamma (PPARγ) (P37231 with tags, fused parts or gaps limits assumed): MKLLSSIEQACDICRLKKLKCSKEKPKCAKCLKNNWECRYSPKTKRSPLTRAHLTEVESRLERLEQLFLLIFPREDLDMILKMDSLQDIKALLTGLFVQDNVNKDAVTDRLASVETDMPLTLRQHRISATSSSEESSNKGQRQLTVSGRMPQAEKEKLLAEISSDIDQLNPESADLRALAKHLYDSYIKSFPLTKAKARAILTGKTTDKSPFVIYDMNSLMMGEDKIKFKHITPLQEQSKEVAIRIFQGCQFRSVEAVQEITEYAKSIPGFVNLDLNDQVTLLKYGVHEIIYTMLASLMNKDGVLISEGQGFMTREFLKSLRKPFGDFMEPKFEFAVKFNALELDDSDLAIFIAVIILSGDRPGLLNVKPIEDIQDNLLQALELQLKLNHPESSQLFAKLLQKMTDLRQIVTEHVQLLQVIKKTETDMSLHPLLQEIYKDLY

Nc1c2ccccc2nc2ccccc12 [9-Aminoacridine]
FXR TR-FRET, antagonist IC50 (FXR-LBD [1]; [9]): Inactive
FXR TR-FRET, agonist EC50 (FXR-LBD [2]): unable to induce coactivator recruitment; also recorded: Inactive
FXR-bla, antagonist IC50 (human FXR [3]; Table 1, 50 μM CDCA, mean ± SD of 3 experiments): Inactive
Cell viability IC50 [4]: Inactive
EC50 (human FXR [5]): 11.2 ± 2.09 µM
FXR-bla, agonist Efficacy (human FXR [5]): 152% and 152 ± 22%

CC1=C(/C=C/C(C)=C/C=C/C(C)=C\C(=O)O)C(C)(C)CCC1 [13-cis Retinoic acid]
Cytotoxicity Efficacy [6]: 52 ± 44

C/C=C1/C(=O)C[C@H]2[C@@H]3CCC4=CC(=O)CC[C@]4(C)[C@H]3CC[C@]12C [(E)-Guggulsterone]
Cytotoxicity IC50 [6]: Inactive

C/C=C1\C(=O)C[C@H]2[C@@H]3CCC4=CC(=O)CC[C@]4(C)[C@H]3CC[C@]12C [(Z)-Guggulsterone]
Cytotoxicity IC50 [6]: Inactive

CC1(C)CCC(C)(C)c2cc(NC(=O)c3ccc(C(=O)O)cc3)ccc21 [AM80]
Cytotoxicity IC50 [6]: Inactive
FXR antagonist mode IC50 (human FXR [3]): Inactive
FXR agonist mode Efficacy (human FXR [5]): 18 ± 7
FXR agonist activity (human FXR [5]): selectively induced transactivation of FXR
EC50 (human FXR [5]; [10]): 38.9 ± 2.36 µM

CC(C)C[C@H](NC(=O)[C@H](Cc1ccccc1)NC(=O)c1cnccn1)B(O)O [Bortezomib]
IC50 (human FXR [3]; FXR antagonist mode IC50, Table S1, primary screening, 50 µM CDCA): 0.44 ± 0.21 µM
FXR antagonist activity (human FXR [3]; CDCA-induced): inconclusive antagonists
Cytotoxicity Efficacy ([4]; Table S1, primary screening): 57 ± 2%
IC50 at 16 h [7]: 0.22 ± 0.1 µM
FXR agonist mode EC50 (human FXR [5]; Table S1, primary screening): Inactive

CC1=C2C[C@H]3[C@@H](CC=C4C[C@@H](O)CC[C@@]43C)[C@@H]2CC[C@]12O[C@@H]1C[C@H](C)CN[C@H]1[C@H]2C [Cyclopamine]
FXR TR-FRET, antagonist IC50 (FXR-LBD [1]; [9]): Inactive
FXR TR-FRET, agonist EC50 (FXR-LBD [2]): unable to induce coactivator recruitment; also recorded: Inactive
FXR-bla, antagonist IC50 (human FXR [3]): Inactive
IC50 ([4]; Homo sapiens, HEK-293T, read-out: Cell viability IC50): 17.6 µM
EC50 (human FXR [5]): 10.6 ± 3.13 µM
FXR-bla, agonist Efficacy (human FXR [5]): 94% and 94 ± 9%

CC1(C)C(/C=C(\Cl)C(F)(F)F)C1C(=O)OC(C#N)c1cccc(Oc2ccccc2)c1 (stereo not shown) [Cyhalothrin]
VDR activity (vitamin D receptor (VDR)): antagonist activity
FXR antagonist mode Efficacy (human FXR [3]): 50 ± 15
IC50 (human FXR [3]; FXR antagonist mode IC50): 21.3 ± 13.1 µM
Cytotoxicity IC50 ([4]; Table S1, primary screening): Inactive
FXR agonist mode EC50 (human FXR [5]; Table S1, primary screening): Inactive

C[C@H](CCC(=O)O)[C@H]1CC[C@H]2[C@@H]3CC[C@@H]4C[C@H](O)CC[C@]4(C)[C@H]3C[C@H](O)[C@]12C [DCA, Deoxycholic acid]
FXR antagonist mode IC50 (human FXR [3]; [11]): Inactive
Cytotoxicity Efficacy ([4]; Table S1, primary screening): 73 ± 17%
IC50 at 16 h [7]: 66.5 ± 16.1 µM
EC50 (human FXR [5]): 47.3 µM
FXR agonist activity (human FXR [5]): selectively induced transactivation of FXR
FXR agonist mode Efficacy (human FXR [5]; [12]): 50 ± 12%

O=C1c2ccccc2C(=O)C1C(=O)C(c1ccccc1)c1ccccc1 [Diphacinone]
FXR TR-FRET, antagonist IC50 (FXR-LBD [1]): Inactive
FXR TR-FRET, agonist EC50 (FXR-LBD [2]): Inactive
IC50 (human FXR [3]; FXR-bla, antagonist IC50): 15 µM
Cell viability IC50 [4]: Inactive
FXR-bla, agonist EC50 (human FXR [5]): Inactive

OCCN(CCO)c1nc(N2CCCCC2)c2nc(N(CCO)CCO)nc(N3CCCCC3)c2n1 [Dipyridamole]
FXR TR-FRET, antagonist IC50 (FXR-LBD [1]; [9]): Inactive
FXR TR-FRET, agonist EC50 (FXR-LBD [2]): Inactive
IC50 (human FXR [3]): 3.5 ± 0.4 µM
FXR-bla, antagonist Efficacy (human FXR [3]; Table 1, 50 μM CDCA): 81 ± 5%
FXR antagonist Efficacy (human FXR [3]; Table S3, 50 µM CDCA): 53 ± 11%
Cell viability IC50 [4]: Inactive
FXR-bla, agonist EC50 (human FXR [5]): Inactive

Cn1cc(C2=C(c3cn(C4CCN(Cc5ccccn5)CC4)c4ccccc34)C(=O)NC2=O)c2ccccc21 [Enzastaurin]
FXR TR-FRET, antagonist IC50 (FXR-LBD [1]; [9]): Inactive
FXR TR-FRET, agonist EC50 (FXR-LBD [2]): Inactive
IC50 (human FXR [3]): 10.2 ± 0.69 µM
FXR-bla, antagonist Efficacy (human FXR [3]; Table 1, 50 μM CDCA): 110 ± 9%
Cell viability IC50 [4]: Inactive
FXR-bla, agonist EC50 (human FXR [5]): Inactive

CC(C)[C@H](C(=O)OC(C#N)c1cccc(Oc2ccccc2)c1)c1ccc(OC(F)F)cc1 (stereo partly shown) [Flucythrinate]
VDR activity (vitamin D receptor (VDR)): antagonist activity
FXR antagonist mode Efficacy (human FXR [3]): 37 ± 9
IC50 (human FXR [3]; FXR antagonist mode IC50): 31.4 ± 20.5 µM
Cytotoxicity IC50 ([4]; Table S1, primary screening): Inactive
FXR agonist mode EC50 (human FXR [5]; Table S1, primary screening): Inactive

O=c1c(-c2ccc(O)cc2)coc2cc(O)cc(O)c12 [Genistein]
Cytotoxicity IC50 [6]: Inactive
IC50 (human FXR [3]; FXR antagonist mode IC50): 22.9 ± 3.16 µM
FXR antagonist mode Efficacy (human FXR [3]; [11]): 57 ± 6%
FXR agonist mode EC50 (human FXR [5]; Table S1, primary screening): Inactive

COCCOC(=O)C1=C(C)NC(C)=C(C(=O)OC(C)C)C1c1cccc([N+](=O)[O-])c1 (stereo not shown) [Nimodipine]
Cytotoxicity IC50 [6]: Inactive

COC(=O)Nc1nc2ccc(C(=O)c3cccs3)cc2[nH]1 [Nocodazole]
FXR TR-FRET, antagonist IC50 (FXR-LBD [1]): Inactive
FXR TR-FRET, agonist EC50 (FXR-LBD [2]): Inactive
VDR activity (vitamin D receptor (VDR)): inhibiting β-lactamase expression
FXR antagonist Efficacy (human FXR [3]): 54 ± 2%
FXR antagonist activity (human FXR [3]; CDCA-induced): inhibiting β-lactamase expression
IC50 (human FXR [3]; FXR-bla, antagonist IC50): 0.29 µM
IC50 (human FXR [3]; IC50, FXR-bla antagonist mode, primary screening, CDCA-induced): 0.32 µM
PPARγ activity [8]: inhibiting β-lactamase expression
Cell viability IC50 [4]: Inactive
FXR-bla, agonist EC50 (human FXR [5]): Inactive

CC(C)=CC1C(C(=O)OCc2cccc(Oc3ccccc3)c2)C1(C)C (stereo not shown) [Phenothrin]
FXR antagonist mode Efficacy (human FXR [3]): 27 ± 7
IC50 (human FXR [3]): 25.4 ± 11.8 µM
Cytotoxicity IC50 ([4]; Table S1, primary screening): Inactive
FXR agonist mode EC50 (human FXR [5]; Table S1, primary screening): Inactive

CO[C@H]1C[C@H](O[C@@H]2/C(C)=C/C[C@@H]3C[C@@H](C[C@]4(CC[C@H](C)[C@@H](C5CCCCC5)O4)O3)OC(=O)[C@@H]3C=C(C)/C(=N/O)[C@H]4OC/C(=C\C=C\[C@@H]2C)[C@]43O)O[C@@H](C)[C@@H]1O [Selamectin]
Cytotoxicity IC50 [6]: Inactive
FXR antagonist Efficacy (human FXR [3]): 45 ± 6%
FXR antagonist mode Efficacy (human FXR [3]): 45 ± 6%
IC50 (human FXR [3]; FXR antagonist mode IC50): 2.48 ± 0.82 µM
FXR agonist Efficacy (human FXR [5]): 68 ± 5%
FXR agonist mode Efficacy (human FXR [5]): 68 ± 5%
EC50 (human FXR [5]; FXR agonist mode EC50): 5.98 ± 0.39 µM

CC[C@]1(O)C[C@@H]2CN(CCc3c([nH]c4ccccc34)[C@@](C(=O)OC)(c3cc4c(cc3OC)N(C)[C@H]3[C@@](O)(C(=O)OC)[C@H](OC(C)=O)[C@]5(CC)C=CCN6CC[C@]43[C@@H]65)C2)C1 [Vinblastine]
FXR TR-FRET, antagonist IC50 (FXR-LBD [1]; [9]): Inactive
FXR TR-FRET, agonist EC50 (FXR-LBD [2]): Inactive
IC50 (human FXR [3]): 0.1 ± 0.04 µM
FXR-bla, antagonist Efficacy (human FXR [3]; Table 1, 50 μM CDCA): 57 ± 7%
FXR antagonist Efficacy (human FXR [3]; Table S3, 50 µM CDCA): 59 ± 2%
Cell viability IC50 [4]: Inactive
FXR-bla, agonist EC50 (human FXR [5]): Inactive

AM580
FXR antagonist mode IC50 (human FXR [3]): Inactive
Cytotoxicity IC50 ([4]; Table S1, primary screening): Inactive
FXR agonist mode Efficacy (human FXR [5]): 68 ± 37
FXR agonist activity (human FXR [5]): selectively induced transactivation of FXR
EC50 (human FXR [5]; [10]): 45.4 ± 3.07 µM

Emamectin
FXR antagonist mode Efficacy (human FXR [3]): 64 ± 19%
IC50 (human FXR [3]; read-out: FXR antagonist mode IC50): 5.81 ± 2.68 µM
Cytotoxicity Efficacy ([4]; Table S1, primary screening): 116 ± 14%
IC50 ([4]; read-out: Cytotoxicity IC50, Table S1, primary screening): 7.54 ± 1.29 µM
FXR agonist mode Efficacy (human FXR [5]): 56 ± 26%
EC50 (human FXR [5]; [10]): 24.6 ± 8.97 µM

Eprinomectin B1a
Cytotoxicity Efficacy [6]: 108 ± 4%
EC50 [6]: 14 ± 1.6 µM
IC50 [6]: 14 ± 1.6 µM
FXR antagonist mode Efficacy (human FXR [3]; [11]): 110 ± 6%
FXR antagonist Efficacy (human FXR [3]; Table S3, 50 µM CDCA): 110 ± 6%
IC50 (human FXR [3]; read-out: FXR antagonist mode IC50, Table S1, primary screening, 50 µM CDCA): 14.5 ± 0.98 µM
FXR agonist mode Efficacy (human FXR [5]; [12]): 41 ± 1%
FXR agonist Efficacy (human FXR [5]; Table S3): 41 ± 1%
EC50 (human FXR [5]; [10]): 5.33 ± 0.35 µM
